Data published in patent publication US20070128719A1, “ISOLATION AND EXPANSION OF ANIMAL CELLS IN CELL CULTURES” (TissueTech, Inc., priority 2003, published 2007).

Columns and labels:
[1] = test system: p44/42 MAPK; settings: 10 μM; cited from earlier work
[2] = test system: Akt; assay: Western blot of Akt phosphorylation in limbal epithelial cells expanded on intact AM; format: cell-based, human; settings: 10 μM
[3] = test system: p44/42 MAPK; assay: Western blot of p44/42 MAPK phosphorylation in limbal epithelial cells expanded on intact AM; format: cell-based, human; settings: 10 μM
[4] = test system: human limbal explants; assay: Epithelial outgrowth from human limbal explants cultured on intact AM with kinase inhibitors; format: cell-based
Description: Human AM was provided by Bio-Tissue (Miami, Fla.) and stored at −80° C. before use. AM was devitalized by freezing and thawing and washed three times with HBSS before being fastened onto a 30 mm culture insert, Millicel-CM (which generated an insert with 23 mm diameter covered by AM), and placed in a 6 well plate (Meller, D. and Tseng S C G, Invest Ophthalmol Vis Sci., 40:878-86, 1999).
After removal of excessive sclera, iris, corneal endothelium, conjunctiva, and Tenon's capsule, the limbal ring was separated by a 7.5 mm trephine from donor human corneas. Each limbal ring was rinsed 3 times with SHEM media. The limbal ring was then exposed for 10 min to 1.2 units/ml Dispase II in Mg^2+- and Ca^2+-free HBSS at 37° C. under 95% humidity and 5% CO2. Following three rinses with SHEM medium, each limbal ring was subdivided into two halves and each half further subdivided into 6 pieces of 1×1.5×2.5 mm explants. To eliminate variations of age, sex, and race, explants from the corresponding position of the same donor cornea were selected for the control and the experimental group, respectively. An explant was placed on the center of intact AM or plastic with the epithelial side facing up and cultured in SHEM medium. The experimental group was added with the inhibitor of desired concentration, while the control group was added with the same concentration of DMSO as the vehicle which was used to dissolve each inhibitor. The culture was maintained at 37° C. under 95% humidity and 5% CO2, the medium was changed every other day, and their outgrowth was monitored daily for 17 days using an inverted phase microscope (Nikon, Japan). The outgrowth area was digitized every other day by Adobe Photoshop 5.5 and analyzed by NIH ImageJ 1.30v (NIH, Bethesda, Md.).
All experiments were performed at least in triplicate. Summary data were reported as means±S.D., compiled and analyzed by MicroSoft Excel™ (MicroSoft, Redmont, Wash.). The mean and standard deviation were calculated for each group using the appropriate version of Student's unpaired t-test. Test results were reported as two-tailed p values, where p<0.05 was considered statistically significant.

[5] = test system: FKHRL1; assay: Western blot of FKHRL1 phosphorylation in limbal epithelial cells expanded on intact AM; format: cell-based, human; settings: 10 μM
[6] = test system: murine limbal epithelial progenitor cells; assay: α-SMA expression in clonal cultures of murine limbal epithelial progenitor cells; format: cell-based, mouse; settings: 5 ng/ml in KSFM; low seeding density (500 cells/cm^2)
Description: In clonal cultures of murine limbal epithelial progenitor cells, expression of α-SMA, a marker for myofibroblasts, was not detected when clonally expanded murine limbal epithelial cells were seeded at low density (500 cells/cm^2), but increasingly detected when cells were seeded at the intermediate (5,000 cells/cm^2) and high seeding densities (50,000 cells/cm^2). Cells expressing α-SMA were larger and squamous and could also express p63 in the nucleus. […] Under these conditions, expression of S100A shifted from cytoplasm to the nucleus, signaling of Smad 4 moved from cytoplasm to the nucleus, expression of […] moved from the intercellular junction to the cytoplasm and the perinucleus, the signaling of β-catenin moved from the intercellular junctions to the nucleus), and the signaling of LEF-1 also moved from the cytoplasm to the nucleus.

[7] = test system: Smad-mediated TGF-β signaling; assay: Immunolocalization of Smad 2 and Smad 4 in murine keratocytes; format: cell-based, mouse; settings: 10 ng/ml, cells on plastic in DMEM/ITS (16% without TGF-β1)
Description: Isolation and Culture of Keratocytes on Plastic or AM—Albino mice eyes were enucleated by forceps, washed profusely in PBS, and incubated in DMEM containing 20 mM HEPES, 15 mg/ml dispase II (Roche, Indianapolis, Ind.) and 100 mM sorbitol at 4° C. for 18 h (see Espana et al., Invest Ophthalmol Vis Sci. 44:4275-4281, 2003; Kawakita et al., Invest Ophthalmol Vis Sci. 45:3507-3512, 2004). The entire corneal epithelium loosened by this treatment was subsequently removed by vigorous shaking. Under a dissecting microscope, the corneal stroma was separated from the sclera at the corneoscleral limbus by pressing down the limbus with a 27 G needle while the eye was held with a forcep. Isolated corneal stromas were incubated overnight at 37° C. in DMEM containing 1.25 mg/ml collagenase A (Roche, Indianapolis, Ind.), 50 μg/ml gentamicin and 20 mM HEPES in a non-coated plastic dish until the tissue became “smeared” onto the dish bottom. Digested corneal stromas in collagenase A were centrifuged at 800×g for 5 min. Keratocytes were resuspended in DMEM containing 20 mM HEPES, ITS (5 μg/ml insulin, 5 μg/ml transferrin and 5 ng/ml sodium selenite), 50 μg/ml gentamicin and 1.25 μg/ml amphotericin B with or without 10% FBS. […]

[8] = test system: murine limbal epithelial cells; assay: Clonal expansion of single cell expanded murine limbal epithelial cells in KSFM; format: cell-based, mouse; settings: 10 pg/ml and 150 pg/ml; 50 cells/cm^2 in KSFM, 6 days
Description: Single cell expanded murine limbal epithelial cells were seeded at 50 cells/cm^2 in KSFM and cultured for 6 days. […] Cells seeded at 20,000 cells/cm^2 in KSFM became enlarged.

[9] = test system: Smad2; assay: Nuclear accumulation of Smad2 in rhesus monkey keratocytes; format: cell-based; settings: 4 ng/ml added in KSFM for 48 hours (19.3±5.1% in KSFM alone)
Excerpt: Three rhesus monkeys (Macaca Mulatta), 4 years old, and rabbit and mouse cornea were obtained from an approved tissue-sharing program after euthanasia. An entire anterior corneoscleral segment was removed from the globe by cutting near the limbus with Wescott's scissors. A central cornea was obtained with an 8.0 mm Barron's trephine and immediately transferred to KSFM medium (cat# 17005-042, GIBCO Invitrogen corporation, Carlsbad, Calif.). After removing Descemet's membrane and the corneal endothelium, the corneal epithelium was removed by dispase digestion for 16 h at 4° C. and the remaining corneal stroma was incubated at 37° C. for 16 h in 2.5 ml of DMEM containing 1 mg/ml collagenase A, 20 mM HEPES, 50 μg/ml gentamicin and 1.25 μg/ml amphotericin in a plastic dish. Afterwards, corneal stromal cells were resuspended in 1 ml of KSFM, centrifuged to remove residual matrices, resuspended in KSFM, and seeded on plastic dishes in KSFM or DMEM containing insulin, transferrin, and selenium supplement (DMEM/ITSG) (cat# 41400-045, GIBCO, Carlsbad, Calif.) or 10% FBS (DMEM/10% FBS).
When the primary culture on plastic reached 80% confluence, cells were rendered into single cells by incubation in BSS containing 0.25% trypsin/1 mM EDTA at 37° C. for 1 to 5 minutes, and the enzymatic reaction was stopped by adding soybean-trypsin inhibitor. […]

[10] = test system: murine keratocytes; assay: α-SMA expression (myofibroblast differentiation) of murine keratocytes; format: cell-based, mouse; settings: cells on plastic; 5 days of continuous stimulation with TGF-β1
Description: TGF-β1 Challenge and Neutralizing Antibody—To assess whether TGF-β1 affected the cell phenotype, triggered Smad 2 and Smad 4 nuclear translocation, and differentiated keratocytes into myofibroblasts, 10 ng/ml human recombinant TGF-β1 (Sigma, St Louis, Mo.) was added to serum-free DMEM/ITS cells for 3 h or 5 days when cells expanded on AM were passed to 24 well plastic dishes and AM inserts, respectively. In addition, primary keratocytes were seeded and cultured on AM or plastic for 3 days in DMEM/ITS or DMEM/10% FBS for 24 h, of which the latter was treated with or without 10 μg of a monoclonal antibody neutralizing TGF-β1, -β2, and -β3 (R&D Systems, Minneapolis, Minn.) per ml of DMEM medium for 48 h before adenoviral transfection.
To confirm that TGF-β was indeed responsible for Smad signaling in DMEM/10% FBS, a neutralizing antibody to three TGF-β isoforms was added to the plastic cultures. Nuclear translocation of Smad 4 was prevented. […] Thirty-nine percent of cells cultured on plastic differentiated into α-SMA-expressing myofibroblasts, but no cell on AM expressed α-SMA even after 5 days of continuous stimulation with TGF-β1.

[11] = after 17 days of treatment at 10 μM

N#CC(=C(/N)Sc1ccccc1N)/C(C#N)=C(\N)Sc1ccccc1N [U0126]
p44/42 MAPK phosphorylation in many cells [1]: completely inhibited
phosphorylation of Akt at Ser473 [2]: decreased
phosphorylation of Akt at Thr308 [2]: eliminated
phosphorylation of p44/42 MAPK (Thr202 and Tyr204) [3]: abolished
day at which epithelial outgrowth was noted / started ([4]; 10 μM): 8 days
average outgrowth area at day 17 ([4]; 10 μM, day 17): 17.0±3.0 mm^2
epithelial outgrowth ([4]; 10 μM, limbal explant on intact AM in SHEM, up to 17 days, vs DMSO control): almost halted
time to re-initiation of outgrowth after switch to fresh medium [4, 11]: 2 days
time to reach ~80% confluence after removal of inhibitor [4, 11]: 25 days
phosphorylation of FKHRL1 at Thr32 [5]: decreased

TGF-β1: human recombinant TGF-β1 (Sigma)
α-SMA expression [6]: upregulated
cells with nuclear localization of Smad 4 ([7]; 3 h): 67%
cells with nuclear localization of Smad 4 ([7]; 5 days): 85%
clonal expansion [8]: dose-dependently suppressed
percentage of nuclear accumulation of Smad2 [9]: 34.7±4.9%
cells differentiated into α-SMA-expressing myofibroblasts [10]: Thirty-nine
